Results as given in patent publication US12649751B2 (Arcus Biosciences, Inc., priority 2022, dated 2026).
Like-named read-outs stand apart in the source and are kept apart here.

Key:
HPK1 = HPK1 (Homo sapiens, UniProt Q92918); test: HPK1 Biochemical Assay (ADP-Glo luminescence; low ATP 10 μM or high ATP 200 μM)
[1] = tested on: p-SLP-76 (Ser376) in Jurkat cells; test: pSLP76 Cellular Assay (AlphaLISA SureFire Ultra p-SLP-76 (Ser376), anti-CD3 activated Jurkat cells); assay type: cell-based; settings: Homo sapiens, read-out: Cellular Potency
Procedure, shortened: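 Jurkat cells, serum-starved overnight in Opti-MEM then in HBSS, preincubated 1 h at 37 °C with 22-point 2-fold compound dilutions, then stimulated with anti-CD3 (0.025 mg/ml added solution) for 45 min. Lysate p-SLP-76 (Ser376) measured by AlphaLISA at 570 nm; IC50 from 4-parameter logistic fit.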

[2] = 2 nM HPK1, 10 μM ATP, read-out: Biochemical Potency (low ATP)
[3] = Jurkat cells, anti-CD3 stimulation, pSLP76
[4] = HPK1 ADP-Glo assay, high ATP (200 μM ATP, 5 nM HPK1), read-out: Biochemical Potency (high ATP)
[5] = pSLP76 (Ser376) AlphaLISA, anti-CD3 activated Jurkat cells
[6] = HPK1 ADP-Glo assay, low ATP (10 μM ATP, 2 nM HPK1), read-out: Biochemical Potency (low ATP)

HPK1, sequence (Q92918 whole entry, species assumed): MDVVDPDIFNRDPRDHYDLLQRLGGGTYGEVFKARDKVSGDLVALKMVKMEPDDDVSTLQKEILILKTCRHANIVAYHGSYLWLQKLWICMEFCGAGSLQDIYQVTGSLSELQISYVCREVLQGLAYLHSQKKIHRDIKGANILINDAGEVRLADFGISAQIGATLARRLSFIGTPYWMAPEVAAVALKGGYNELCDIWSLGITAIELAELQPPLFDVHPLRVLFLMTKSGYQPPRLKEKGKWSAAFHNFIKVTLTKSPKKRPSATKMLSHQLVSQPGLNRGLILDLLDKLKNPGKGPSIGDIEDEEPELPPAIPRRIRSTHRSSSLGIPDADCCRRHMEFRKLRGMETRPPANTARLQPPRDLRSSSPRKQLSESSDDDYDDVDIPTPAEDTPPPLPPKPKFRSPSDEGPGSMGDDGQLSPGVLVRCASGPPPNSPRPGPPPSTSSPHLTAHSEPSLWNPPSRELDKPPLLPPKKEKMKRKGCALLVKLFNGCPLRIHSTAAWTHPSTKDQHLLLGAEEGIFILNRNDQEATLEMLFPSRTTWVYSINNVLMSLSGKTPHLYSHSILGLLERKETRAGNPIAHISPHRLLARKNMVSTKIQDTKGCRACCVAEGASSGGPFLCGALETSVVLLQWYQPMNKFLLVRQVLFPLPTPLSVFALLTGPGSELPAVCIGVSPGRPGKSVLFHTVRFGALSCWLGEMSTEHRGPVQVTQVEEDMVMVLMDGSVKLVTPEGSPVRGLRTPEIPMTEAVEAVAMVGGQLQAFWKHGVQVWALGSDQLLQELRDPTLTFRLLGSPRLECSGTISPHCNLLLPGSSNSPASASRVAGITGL

Row | SMILES | IC50 (HPK1; [2]) | IC50 [1, 3] | IC50 (HPK1; [4]) | IC50 [1, 5] | IC50 (HPK1; [6])
1 | c1cc(-c2nnco2)cc(-c2nc3cc(Nc4cccc(N5C[C@@H]6C[C@H]5CN6)n4)ncc3s2)c1 [Example 142, 6-[(1S,4S)-2,5-Diazabicyclo[2.2.1]heptan-2-yl]-N-{2-[3-(1,3,4-oxadiazol-2-yl)phenyl]-[1,3]thiazolo[5,4-c]pyridin-6-yl}pyridin-2-amine] | < 100 nM | 1000 to 5000 nM |  |  | 
2 | Cc1ccnn1-c1nc2cc(Nc3ccc(N4CCOCC4)c(CN4CCCC4)n3)ncc2s1 [Example 194, N-[2-(5-Methyl-1H-pyrazol-1-yl)-[1,3]thiazolo[5,4-c]pyridin-6-yl]-5-(morpholin-4-yl)-6-[(pyrrolidin-1-yl)methyl]pyridin-2-amine] | < 100 nM | < 100 nM |  |  | 
3 | Cc1cc(Nc2cc3nc(-c4cccc(-c5ncccc5C(C)C)c4)sc3cn2)nc(N2C[C@@H]3C[C@H]2CN3C)n1 [Example 585] |  |  | < 100 nM | 100 to 1000 nM | 
4 | Cc1ccc(Nc2cc3nc(-n4cccn4)sc3cn2)nc1CN1CCCC1 [Example 200, 5-Methyl-N-[2-(1H-pyrazol-1-yl)-[1,3]thiazolo[5,4-c]pyridin-6-yl]-6-[(pyrrolidin-1-yl)methyl]pyridin-2-amine] | < 100 nM | 1000 to 5000 nM |  |  | 
5 | Cc1cc(Nc2cc3nc(-c4cccc5c4CCCN5)sc3cn2)nc(N2C[C@@H]3C[C@H]2CN3C)n1 [Example 313, 6-methyl-2-[(1S,4S)-5-methyl-2,5-diazabicyclo[2.2.1]heptan-2-yl]-N-[2-(1,2,3,4-tetrahydroquinolin-5-yl)-[1,3]thiazolo[5,4-c]pyridin-6-yl]pyrimidin-4-amine] |  |  | < 100 nM | < 100 nM | 
6 | Cc1cc(Nc2cc3nc(-c4cccc(C(=O)N(C)C)c4F)sc3cn2)nc(N2C[C@@H]3C[C@H]2CN3C)n1 [Example 399] |  |  | < 100 nM | 100 to 1000 nM | 
7 | Cc1cccnc1-c1nc2cc(Nc3ccc(Cl)c(N4C[C@@H]5C[C@H]4CN5C)n3)ncc2s1 [Example 110, 5-Chloro-6-[(1S,4S)-5-methyl-2,5-diazabicyclo[2.2.1]heptan-2-yl]-N-[2-(3-methylpyridin-2-yl)-[1,3]thiazolo[5,4-c]pyridin-6-yl]pyridin-2-amine] | < 100 nM | 100 to 1000 nM |  |  | 
8 | CCN1C[C@@H]2C[C@H]1CN2c1nc(C)cc(Nc2cc3nc(-c4cccc(C(=O)N5CCC[C@@H](C)C5)c4)sc3cn2)n1 [Example 511] |  |  | < 100 nM | 100 to 1000 nM | 
9 | Cc1c(-c2nc3cc(Nc4ccc(N5CCOCC5)c(CN(C)C)n4)ncc3s2)cnc2c1NCCO2 [Example 28, 6-[(Dimethylamino)methyl]-N-(2-{8-methyl-1H,2H,3H-pyrido[2,3-b][1,4]oxazin-7-yl}-[1,3]thiazolo[5,4-c]pyridin-6-yl)-5-(morpholin-4-yl)pyridin-2-amine] | < 100 nM | 100 to 1000 nM |  |  | 
10 | CCN1C[C@@H]2C[C@H]1CN2c1nc(C)cc(Nc2cc3nc(O[C@H](C)c4ccccc4)sc3cn2)n1 [Example 298, 2-[(1S,4S)-5-ethyl-2,5-diazabicyclo[2.2.1]heptan-2-yl]-6-methyl-N-{2-[(1R)-1-phenylethoxy]-[1,3]thiazolo[5,4-c]pyridin-6-yl}pyrimidin-4-amine] |  |  | < 100 nM | < 100 nM | 
11 | Cc1cc(Nc2cc3nc(-c4cccc(C(=O)N(C)C)c4)sc3cn2)nc(N2C[C@@H]3C[C@H]2CN3Cc2cccnc2)n1 [Example 497] |  |  | < 100 nM | 100 to 1000 nM | 
12 | CN1C[C@@H]2C[C@H]1CN2c1cccc(Nc2cc3nc(-c4ncccc4C(F)(F)F)sc3cn2)n1 [Example 92, 6-[(1S,4S)-5-Methyl-2,5-diazabicyclo[2.2.1]heptan-2-yl]-N-{2-[3-(trifluoromethyl)pyridin-2-yl]-[1,3]thiazolo[5,4-c]pyridin-6-yl}pyridin-2-amine] | < 100 nM | 100 to 1000 nM |  |  | 
13 | Cc1ccc(Nc2cc3nc(-c4ccnnc4)sc3cn2)nc1CN1CCCC1 [Example 57, 5-Methyl-N-[2-(pyridazin-4-yl)-[1,3]thiazolo[5,4-c]pyridin-6-yl]-6-[(pyrrolidin-1-yl)methyl]pyridin-2-amine] | < 100 nM | 1000 to 5000 nM |  |  | 
14 | Cc1cc(Nc2cc3nc(-c4cnn(CC5CC5)c4)sc3cn2)nc(N2C[C@@H]3C[C@H]2CN3CC(C)(C)O)n1 [Example 503] |  |  | < 100 nM | 100 to 1000 nM | 
15 | CN1C[C@@H]2C[C@H]1CN2c1cccc(Nc2cc3nc(-c4cccc(C#N)c4)sc3cn2)n1 [Example 133, 3-[6-({6-[(1S,4S)-5-Methyl-2,5-diazabicyclo[2.2.1]heptan-2-yl]pyridin-2-yl}amino)-[1,3]thiazolo[5,4-c]pyridin-2-yl]benzonitrile] | < 100 nM | > 5000 nM |  |  | 
16 | Cc1cc(Nc2cc3nc(-c4ccnc(N5C[C@H]6COC[C@H]6C5)c4)sc3cn2)nc(N2C[C@@H]3C[C@H]2CN3C)n1 [Example 457] |  |  | < 100 nM | 100 to 1000 nM | 
17 | Cc1cc(Nc2cc3nc(-c4ccnc(N5CCO[C@@H](C)C5)c4)sc3cn2)nc(N2C[C@@H]3C[C@H]2CN3CCO)n1 [Example 446] |  |  | < 100 nM | 100 to 1000 nM | 
18 | Cc1cc(Nc2cc3nc(-c4cccc5c4CN(C)C5=O)sc3cn2)nc(N2C[C@@H]3C[C@H]2CN3C)n1 [Example 400] |  |  | < 100 nM | 5000 to 25000 nM | 
19 | CN(C)C(=O)c1cccc(-c2nc3cc(Nc4cccc(N5C[C@@H]6C[C@H]5CN6)n4)ncc3s2)c1 [Example 140, 3-[6-({6-[(1S,4S)-2,5-Diazabicyclo[2.2.1]heptan-2-yl]pyridin-2-yl}amino)-[1,3]thiazolo[5,4-c]pyridin-2-yl]-N,N-dimethylbenzamide] | < 100 nM | 100 to 1000 nM |  |  | 

Row | SMILES | IC50 (HPK1; [2]) | IC50 [1, 3] | IC50 (HPK1; [4]) | IC50 [1, 5] | IC50 (HPK1; [6])
20 | Cc1cc(Nc2cc3nc(-c4ccnc(C5(O)CCCC5)c4)sc3cn2)nc(N2C[C@@H]3C[C@H]2CN3C)n1 [Example 397] |  |  | < 100 nM | < 100 nM | 
21 | c1cncc(-c2nc3cc(Nc4ccc(C5CCOC5)c(CN5CCCC5)n4)ncc3s2)c1 (centres unmarked) [Example 254, 5-(Oxolan-3-yl)-N-[2-(pyridin-3-yl)-[1,3]thiazolo[5,4-c]pyridin-6-yl]-6-[(pyrrolidin-1-yl)methyl]pyridin-2-amine] | < 100 nM | 100 to 1000 nM |  |  | 
22 | Cc1cc(Nc2cc3nc(-c4cnn(CC5CC5)c4)sc3cn2)nc(N2C[C@@H]3C[C@H]2CN3CCO)n1 [Example 370] |  |  | < 100 nM | < 100 nM | 
23 | Cc1cc(Nc2cc3nc(-c4cccc(C(=O)N(C)[C@@H](C)CO)c4)sc3cn2)nc(N2C[C@@H]3C[C@H]2CN3CC2CC2)n1 [Example 560] |  |  | < 100 nM | < 100 nM | 
24 | Cc1cccnc1-c1nc2cc(Nc3cc(C4CC4)nc(N4C[C@@H]5C[C@H]4CN5C)n3)ncc2s1 [Example 436] |  |  | < 100 nM | 100 to 1000 nM | 
25 | Cc1cccc(F)c1-c1nc2cc(Nc3ccc(N4CCOCC4)c(CN4CCCC4)n3)ncc2s1 [Example 16, N-[2-(2-Fluoro-6-methylphenyl)-[1,3]thiazolo[5,4-c]pyridin-6-yl]-5-(morpholin-4-yl)-6-[(pyrrolidin-1-yl)methyl]pyridin-2-amine] | < 100 nM | 1000 to 5000 nM |  |  | 
26 | Cc1cccnc1-c1nc2cc(Nc3ccc4c(n3)[C@@H](N)CC4)ncc2s1 [Example 581] |  |  |  | 100 to 1000 nM | < 100 nM
27 | Cc1cc(Nc2cc3nc(-c4cccc(C(=O)N5CCOC[C@H]5C)c4)sc3cn2)nc(N2C[C@@H]3C[C@H]2CN3CCO)n1 [Example 547] |  |  | < 100 nM | 100 to 1000 nM | 
28 | CCN1C[C@@H]2C[C@H]1CN2c1nc(C)cc(Nc2cc3nc(-c4cc(C(=O)N(C)C)cc(C5CC5)c4)sc3cn2)n1 [Example 536] |  |  | < 100 nM | < 100 nM | 
29 | Cc1cc(Nc2cc3nc(-c4cccc(C(=O)N(C)C)c4)sc3cn2)nc(N2C[C@@H]3C[C@H]2CN3Cc2ccccc2)n1 [Example 496] |  |  | < 100 nM | < 100 nM | 
30 | Cc1cc(Nc2cc3nc(-c4cnn(CC5CC5)c4)sc3cn2)nc(N2C[C@@H]3C[C@H]2CN3CCO)c1 [Example 348] |  |  | < 100 nM | < 100 nM | 
31 | CCN1C[C@@H]2C[C@H]1CN2c1nc(C)cc(Nc2cc3nc(-c4cccc(COC5CC5)c4)sc3cn2)n1 [Example 567] |  |  | < 100 nM | 100 to 1000 nM | 
32 | Cc1cc(Nc2cc3nc(-c4cccc(C(=O)N(C)[C@H]5CCOC5)c4)sc3cn2)nc(N2C[C@@H]3C[C@H]2CN3CCO)n1 [Example 555] |  |  | < 100 nM | < 100 nM | 
33 | Cc1cc(Nc2cc3nc(-c4cccc(C(=O)N(C)C)c4)sc3cn2)nc(N2C[C@@H]3C[C@H]2CN3CCOC(C)C)n1 [Example 492] |  |  | < 100 nM | 100 to 1000 nM | 
34 | CCN1C[C@@H]2C[C@H]1CN2c1nc(C)cc(Nc2cc3nc(-c4cnn(Cc5ccccc5)c4)sc3cn2)n1 [Example 336] |  |  | < 100 nM | 100 to 1000 nM | 
35 | Cc1cc(Nc2cc3nc(-c4cccc(C(C)(C)O)c4F)sc3cn2)nc(N2C[C@@H]3C[C@H]2CN3C)n1 [Example 401] |  |  | < 100 nM | 100 to 1000 nM | 
36 | Fc1cccc(F)c1-c1nc2cc(Nc3cc4c(cn3)CCNC4)ncc2s1 [Example 486] |  |  |  | 5000 to 25000 nM | 100 to 1000 nM
37 | Cc1cc(-c2nc3cc(Nc4ccc(C5CCOCC5)c(CN5CCC(F)(F)C5)n4)ncc3s2)ccn1 [Example 220, 6-[(3,3-Difluoropyrrolidin-1-yl)methyl]-N-[2-(2-methylpyridin-4-yl)-[1,3]thiazolo[5,4-c]pyridin-6-yl]-5-(oxan-4-yl)pyridin-2-amine] | < 100 nM | 100 to 1000 nM |  |  | 
